Where two headings read alike, the source gives them in different places.
Tests used:
Format in all cases: cell-based
[1] = biological target: T1, GHSR-1a (HEK293/GHSR1a cell line) (Homo sapiens, UniProt Q92847); assay: Ghrelin antagonist potency (IC50) with calcium FLIPR assay, ghrelin 10 nM; details: ghrelin antagonist potency, read-out: Activity IC50
T1 construct: expressed in transfected cells; host or cells: HEK293/GHSR1a cell line
Outline: (§1)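 Fluorescence read-out of intracellular calcium over 2 min. Agonist EC50 came from compound added alone at t=20 sec. Antagonist IC50 came from the reduction of the response to 10 nM ghrelin co-added with compound at t=20 sec. Both were fitted from dose-response data.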

[2] = biological target: T1, GHSR-1a (HEK293/GHSR1a cell line); assay: Ghrelin agonist potency (EC50) with calcium FLIPR assay; details: ghrelin agonist potency, read-out: Activity EC50/EMax
Outline: as §1

[3] = biological target: T2, recombinant human ghrelin receptor (HEK293/GRLN) (Homo sapiens, UniProt Q92847); assay: Ghrelin inverse agonist potency (EC50) with IP-1 (IP-One HTRF) assay; details: ghrelin inverse agonist potency, IP-1 assay; read-out: Activity EC50
T2 construct: expressed in transfected cells
Outline: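 IP-1 accumulation was measured by HTRF (IP1-d2/Tb-cryptate, 620/665 nm read after 1 hour at room temperature) following 1 hour of compound treatment at 37° C. Cells were HEK293 stably expressing human ghrelin receptor, plated a day earlier on Matrigel. Inverse agonist potency was reported as EC50.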

T1 sequence (Q92847 whole entry): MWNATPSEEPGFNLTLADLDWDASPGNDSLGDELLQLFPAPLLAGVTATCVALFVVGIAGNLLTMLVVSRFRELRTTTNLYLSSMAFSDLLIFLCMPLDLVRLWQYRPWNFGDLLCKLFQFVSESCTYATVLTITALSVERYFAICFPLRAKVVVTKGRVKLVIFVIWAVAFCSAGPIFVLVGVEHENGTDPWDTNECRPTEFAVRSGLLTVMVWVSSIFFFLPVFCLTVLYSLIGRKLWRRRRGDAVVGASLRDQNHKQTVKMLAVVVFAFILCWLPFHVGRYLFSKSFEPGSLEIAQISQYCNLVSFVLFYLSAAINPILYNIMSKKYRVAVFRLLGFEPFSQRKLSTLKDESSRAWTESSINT
T2 sequence (Q92847 whole entry): as above

| SMILES | IC50 [1] | EC50 [2] | EC50 [3] | EC50 ([2]; heading: Activity EC50/EMax) |
| --- | --- | --- | --- | --- |
| CC(NC(=O)Nc1ccc(S(=O)(=O)Cc2ccc3c(c2)CN(C)C3)cc1CO)c1ccccc1 (stereo not drawn) [H1468, 1-(2-(hydroxymethyl)-4-(((2-methylisoindolin-5-yl)methyl)sulfonyl)phenyl)-3-(1-phenylethyl)urea] | 80.6 nM | > 30000 nM | 18.2 nM |  |
| CC(c1ccccc1)n1c(=O)[nH]c2ccc(S(=O)(=O)Cc3ccc4c(c3)CNC4)cc2c1=O (stereo not drawn) [H1469, 6-((isoindolin-5-ylmethyl)sulfonyl)-3-(1-phenylethyl)quinazoline-2,4(1H,3H)-dione] | 110 nM |  | 26 nM | 110 nM |
| CC(c1ccccc1)n1c(=O)[nH]c2ccc(S(=O)(=O)Cc3ccc4c(c3)CN(C)C4)cc2c1=O (stereo not drawn) [H1470, 6-(((2-methylisoindolin-5-yl)methyl)sulfonyl)-3-(1-phenylethyl)quinazoline-2,4(1H,3H)-dione] | 483 nM |  | 22.3 nM | 227 nM |
| CC(c1ccccc1)N(O)C(=O)Nc1ccc(S(=O)(=O)Cc2ccc3c(c2)CN(C)C3)cc1 (stereo not drawn) [H1471, 1-hydroxy-3-(4-(((2-methylisoindolin-5-yl)methyl)sulfonyl)phenyl)-1-(1-phenylethyl)urea] | 11.8 nM | > 30000 nM | 3.89 nM |  |
| CC(NC(=O)N(O)c1ccc(S(=O)(=O)Cc2ccc3c(c2)CNC3)cc1)c1ccccc1 (stereo not drawn) [H1473, 1-hydroxy-1-(4-((isoindolin-5-ylmethyl)sulfonyl)phenyl)-3-(1-phenylethyl)urea] | 2240 nM | > 30000 nM | 515 nM |  |
| CC(c1ccccc1)N(C)C(=O)Nc1ccc(S(=O)(=O)Cc2ccc3c(c2)CN(C)C3)cc1O (stereo not drawn) [H1474, 3-(2-hydroxy-4-(((2-methylisoindolin-5-yl)methyl)sulfonyl)phenyl)-1-methyl-1-(1-phenylethyl)urea] | 700 nM | > 30000 nM | 133 nM |  |
| COc1ccc(C(C)NC(=O)Nc2ccc(S(=O)(=O)Cc3ccc4c(c3)CNC4)cc2)cc1Cl (stereo not drawn) [H1475, 1-(1-(3-chloro-4-methoxyphenyl)ethyl)-3-(4-((isoindolin-5-ylmethyl)sulfonyl)phenyl)urea] | 32.2 nM | > 30000 nM | 18.9 nM |  |
| COc1ccc(C(C)NC(=O)Nc2ccc(S(=O)(=O)Cc3ccc4c(c3)CN(C)C4)cc2)cc1Cl (stereo not drawn) [H1476, 1-(1-(3-chloro-4-methoxyphenyl)ethyl)-3-(4-(((2-methylisoindolin-5-yl)methyl)sulfonyl)phenyl)urea] | 42.6 nM | > 30000 nM | 24.1 nM |  |
| COc1ccc(CNC(=O)Nc2ccc(S(=O)(=O)Cc3ccc4c(c3)CN(C)C4)cc2)cc1Cl [H1478, 1-(3-chloro-4-methoxybenzyl)-3-(4-(((2-methylisoindolin-5-yl)methyl)sulfonyl)phenyl)urea] | 40.3 nM | > 30000 nM | 19.6 nM |  |
| CC(NC(=O)Nc1ccc(C(=O)Nc2ccc3c(c2)CNC3)cc1)c1ccccc1 (stereo not drawn) [H1479, N-(isoindolin-5-yl)-4-(3-(1-phenylethyl)ureido)benzamide] | 2500 nM | > 30000 nM | 1950 nM |  |
| CC(NC(=O)Nc1ccc(C(=O)Nc2ccc3c(c2)CN(C)C3)cc1)c1ccccc1 (stereo not drawn) [H1480, N-(2-methylisoindolin-5-yl)-4-(3-(1-phenylethyl)ureido)benzamide] | 24200 nM | > 30000 nM | > 10000 nM |  |
| O=C(NCC1COc2ccccc2O1)Nc1ccc(S(=O)(=O)Cc2ccc3c(c2)CNC3)cc1 (stereo not drawn) [H1483, 1-((2,3-dihydrobenzo[b][1,4]dioxin-2-yl)methyl)-3-(4-((isoindolin-5-ylmethyl)sulfonyl)phenyl)urea] | 53.8 nM | > 30000 nM | 24.1 nM |  |
| CC(NC(=O)Nc1ccc(S(=O)(=O)Cc2ccc3c(c2)CNC3)cc1Br)c1ccccc1 (stereo not drawn) [H1485, 1-(2-bromo-4-((isoindolin-5-ylmethyl)sulfonyl)phenyl)-3-(1-phenylethyl)urea] | 19.1 nM | > 30000 nM | 10.2 nM |  |
| CC(NC(=O)Nc1ccc(S(=O)(=O)CC2=CC3CCC(C2)N3)cc1)c1cccc(Cl)c1Cl (stereo not drawn) [H1488, 1-(4-(((8-azabicyclo[3.2.1]oct-2-en-3-yl)methyl)sulfonyl)phenyl)-3-(1-(2,3-dichlorophenyl)ethyl)urea] | 2050 nM | > 30000 nM | 668 nM |  |
| O=C(Nc1ccc(S(=O)(=O)Cc2ccc3c(c2)CNC3)cc1)N(O)Cc1ccccc1 [H1502, 1-benzyl-1-hydroxy-3-(4-((isoindolin-5-ylmethyl)sulfonyl)phenyl)urea] | 164 nM | > 30000 nM | 35.1 nM |  |
| CN1Cc2ccc(CS(=O)(=O)c3ccc(NC(=O)N(O)Cc4ccccc4)cc3)cc2C1 [H1503, 1-benzyl-1-hydroxy-3-(4-(((2-methylisoindolin-5-yl)methyl)sulfonyl)phenyl)urea] | 512 nM | > 30000 nM | 101 nM |  |
| CC(NC(=O)Nc1ccc(S(=O)(=O)Cc2ccc3c(c2)CNC3)c(-c2ncco2)c1)c1ccccc1 (stereo not drawn) [H1507, 1-(4-((isoindolin-5-ylmethyl)sulfonyl)-3-(oxazol-2-yl)phenyl)-3-(1-phenylethyl)urea] | 12.8 nM | > 30000 nM | 19.7 nM |  |
| CC(NC(=O)Nc1ccc(S(=O)(=O)Cc2ccc3c(c2)CN(C)C3)c(-c2ncco2)c1)c1ccccc1 (stereo not drawn) [H1508, 1-(4-(((2-methylisoindolin-5-yl)methyl)sulfonyl)-3-(oxazol-2-yl)phenyl)-3-(1-phenylethyl)urea] | 61.8 nM | > 30000 nM | 30 nM |  |
| CC(NC(=O)Nc1ccc(S(=O)(=O)Cc2ccc3c(c2)CNC3)cc1C(C)(C)O)c1ccccc1 (stereo not drawn) [H1512, 1-(2-(2-hydroxypropan-2-yl)-4-((isoindolin-5-ylmethyl)sulfonyl)phenyl)-3-(1-phenylethyl)urea] | 582 nM | > 30000 nM | 273 nM |  |
| CC(=O)N1C2CC=C(CS(=O)(=O)c3ccc(NC(=O)NC(C)c4cccc(Cl)c4Cl)cc3)C1CC2 (stereo not drawn) [H1513, 1-(4-(((8-acetyl-8-azabicyclo[3.2.1]oct-2-en-2-yl)methyl)sulfonyl)phenyl)-3-(1-(2,3-dichlorophenyl)ethyl)urea] | 14600 nM | > 30000 nM | 707 nM |  |
| CC(NC(=O)Nc1ccc(S(=O)(=O)CC2=CCC3CCC2N3C(C)C)cc1)c1cccc(Cl)c1Cl (stereo not drawn) [H1514, 1-(1-(2,3-dichlorophenyl)ethyl)-3-(4-(((8-isopropyl-8-azabicyclo[3.2.1]oct-2-en-2-yl)methyl)sulfonyl)phenyl)urea] | 16200 nM | > 30000 nM | 17.6 nM |  |
| CC(NC(=O)Nc1ccc(S(=O)(=O)Cc2ccc3c(c2)CNC3)c(CO)c1)c1ccccc1 (stereo not drawn) [H1520, 1-(3-(hydroxymethyl)-4-((isoindolin-5-ylmethyl)sulfonyl)phenyl)-3-(1-phenylethyl)urea] | 26.2 nM | > 30000 nM | 12.7 nM |  |
| Cc1ccc(C(C)NC(=O)Nc2ccc(S(=O)(=O)Cc3ccc4c(c3)CNC4)cc2)cc1C(F)F (stereo not drawn) [H1521, 1-(1-(3-(difluoromethyl)-4-methylphenyl)ethyl)-3-(4-((isoindolin-5-ylmethyl)sulfonyl)phenyl)urea] | 52.3 nM | > 30000 nM | 17.8 nM |  |
